Data set [1] can be described thus: Pharmacokinetic Determination (Rat PK). Format: in vivo. Conditions: plasma, female SD rats. The method, then:
Example D Pharmacokinetic Determination
Grouping female SD rats weighing 200-300 g randomly to two groups; one group was administered with test compound at a dose of 3.0 mg/kg by intravenous injection, the other group was administered with test compound at a dose of 10.0 mg/kg by oral. The formulation for IV groups is DMSO/PEG400/150 mM glycine (pH 9) (5/10/85) and the formulation for PO groups is PEG400/PVP/Tween 80/0.5% CMC in water (9/0.5/0.5/90). After administering, blood samples of intravenous injection group were collected at time points of predose, 0.0833, 0.25, 0.5, 1, 2, 4, 8, 12 and 24 h; blood samples of oral group were collected at time points of predose, 0.25, 0.5, 1, 2, 4, 8, 12, and 24 h. Standard curve was plotted based on concentrations of the samples in a suitable range, the concentrations of test compounds in plasma samples were determined by using LC-MS/MS. Pharmacokinetic parameters were calculated according to drug concentration-time curve using a noncompartmental method by WinNonLin (Phoenix™, version 6.1) or other similar software.

For another data set, the system named is MCF7. Put plainly: Breast Cancer Cell Proliferation Assay (MCF-7). The conditions noted are these: Homo sapiens, 120 h; MCF7 cells, 5 days of compound exposure, Cell Titer-Glo. Format: cell-based. As to the method:
Breast Cancer Cell Proliferation Assay (MCF-7)
MCF7 was expanded and maintained in the medium (Phenol red free DMEM/F12 (Hyclone SH30272.01) NEAA (Gibco11140-050) Na-pyruvate (Gibco 11360-070) and Re-stripped Charcoal stripped FBS (Gemini 100-119)). The cells were adjusted to a concentration of 3,000 cells per mL in the above media, and the cells were incubated (37° C., 5% CO2). The following day a 10 point, serial dilution of compounds was added to the cells at a final concentration ranging from 10-0.000005 μM for test compounds (17β-estradiol was used as a control). Additional cells were plated in 30 wells to serve as the day 1 (pretreatment) comparison. After 5 days of compound exposure, Cell Titer-Glo reagent was added to the cells and the relative luminescence units (RLUs) of each well was determined. Cell Titer-Glo was also added to 32 μL of medium without cells to obtain a background value. The plates were allowed to incubate at room temperature for 10 minutes to stabilize luminescent signal and the luminescence signal was recorded with EnSpire. The relative increase in cell number of each sample is determined as follows: (RLU sample-RLU background/RLU estrogen only treated cells-RLU background)×100=% inhibition.
In general terms: ATP-based viability assays read luminescence as a measure of living cells.

A further data set has as its target T1, ERα (Homo sapiens, UniProt P03372).
T1 construct: endogenous in cells; host or cells: MCF-7
T1 sequence (P03372 1-595): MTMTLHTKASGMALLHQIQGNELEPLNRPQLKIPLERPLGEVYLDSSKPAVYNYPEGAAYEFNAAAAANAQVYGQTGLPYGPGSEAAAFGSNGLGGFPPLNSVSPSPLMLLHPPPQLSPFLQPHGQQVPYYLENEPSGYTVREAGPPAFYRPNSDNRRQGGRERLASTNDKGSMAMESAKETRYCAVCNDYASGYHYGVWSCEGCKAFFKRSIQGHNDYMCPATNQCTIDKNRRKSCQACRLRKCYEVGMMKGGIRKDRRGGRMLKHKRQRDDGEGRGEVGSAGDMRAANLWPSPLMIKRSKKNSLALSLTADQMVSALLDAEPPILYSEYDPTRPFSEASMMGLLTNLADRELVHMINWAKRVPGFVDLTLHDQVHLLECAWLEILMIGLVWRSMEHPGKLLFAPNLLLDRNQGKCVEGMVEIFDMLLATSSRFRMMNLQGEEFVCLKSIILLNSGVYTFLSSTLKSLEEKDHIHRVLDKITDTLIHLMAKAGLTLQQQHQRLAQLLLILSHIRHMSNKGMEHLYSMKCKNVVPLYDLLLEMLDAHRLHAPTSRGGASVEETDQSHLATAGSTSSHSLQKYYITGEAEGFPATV
Briefly: ER Degradation Determination by Western Blot. Format: cell-based. The conditions noted are these: MCF-7 cells, 10 μM, 18-24 hours. The method, then:
ER Degradation Determination by Western Blot
MCF-7 cells are plated at 0.3 million cells/mL (3 mL/well) in 6-well plates in experiment media and incubated at 37° C., 5% CO2 for […]. Next day, 10× solution of compounds are made in DMSO and added the solution to the cells to achieve a final concentration of 10 μM. A DMSO control is included to enable a determination of the relative efficacy of test compounds. Fulvestrant is used as a positive control for ER-alpha degradation, and 4-OH tamoxifen as a control for receptor stabilization. After incubating cells with compounds for 18-24 hours, cell lysates are prepared (2× Cell lysis buffer:100 mM Tris, pH 8, 300 mM NaCl, 2% NP40, 1% Na deoxycholate, 0.04% SDS, 2 mM EDTA) and mixed thoroughly and incubated on ice. The protein concentration is quantified using BCA kit. […] The gel was then transferred onto a nitrocellulose membrane. […] GAPDH protein was used as an internal control.
Background: A western blot detects proteins with antibodies after separation by electrophoresis.

What is called AUC(0-inf) is the area under the concentration-time curve extrapolated to infinity. Read a low AUC(0-inf) as low exposure. For orientation: clearance means a measure of how efficiently the substance is removed, as volume per time. A high value points to a high capacity for elimination. A word on the half-life: it is the time in which the quantity being followed falls by half. A high value points to slow loss. One may read the Cmax as the highest concentration seen after dosing. Broadly, the Tmax is the time at which the peak concentration occurs. By IC50 is commonly meant the concentration needed to halve the response being measured. A lower IC50 goes with higher potency.

In data set [1] (IV, 3.0 mg/kg), `CC/C(=C(/c1ccc(/C=C/C(=O)O)cc1)c1ccc2[nH]ncc2c1)c1ccc(F)cc1Cl` [ARN810, reference compound] had an area under the curve AUC(0-inf) of 5.9 µM·h, a clearance of 19 mL/min/kg and a half-life of 4.7 h. In addition, the Vd in data set [1] (IV, 3.0 mg/kg, read-out: Vdss) was found to be 1.2 L/kg. In data set [1] (PO 10.0 mg/kg vs IV 3.0 mg/kg), the bioavailability is 117%. In data set [1] (PO, 10.0 mg/kg), the AUC(0-inf) was 23 µM·h, the maximum concentration (Cmax) amounted to 6.7 µM, the time of peak concentration (Tmax) was determined as 1 h and the half-life was 6.9 h. This molecule also displayed an IC50 in the data set with MCF7 not above 25 nM.

On to `CC[C@@H]1Cc2c([nH]c3ccccc23)[C@@H](c2c(F)cc(/C=C/C(=O)O)cc2F)N1C12CC(C1)C2` (single isomer, unassigned) [Example 25A], for which the IC50 with MCF7 was not below 250 nM.

Molecule `C[C@@H]1Cc2c([nH]c3ccccc23)[C@@H](c2c(F)cc(/C=C/C(=O)O)cc2F)N1CC1(F)COC1` [Example 16A, (E)-3-(3,5-Difluoro-4-((1R,3R)-2-((3-fluorooxetan-3-yl)methyl)-3-methyl-2,3,4,9-tetrahydro-1H-pyrido[3,4-b]indol-1-yl)phenyl)acrylic acid] returned a 50% inhibitory concentration (IC50) with MCF7 not above 25 nM.

In turn, `C[C@@H]1Cc2c(n(C)c3ccccc23)[C@@H](c2c(F)cc(/C=C/C(=O)O)cc2F)N1C12CC(C1)C2` [Example 26A, (E)-3-(4-((1R,3R)-2-(bicyclo[1.1.1]pentan-1-yl)-3,9-dimethyl-2,3,4,9-tetrahydro-1H-pyrido[3,4-b]indol-1-yl)-3,5-difluorophenyl)acrylic acid] returned an IC50 in the data set on MCF7 not below 250 nM.

With `CC[C@H]1Cc2c([nH]c3ccccc23)[C@H](c2c(F)cc(/C=C/C(=O)O)cc2F)N1C12CC(C1)C2` (single isomer, unassigned) [Example 25B], the IC50 in the data set with MCF7 was not above 25 nM.

`CC1(C)Cc2c([nH]c3ccccc23)C(c2c(F)cc(/C=C/C(=O)O)cc2F)N1CC12CC(C1)C2` (centres unmarked) [Example 22, (E)-3-(4-(2-(Bicyclo[1.1.1]pentan-1-ylmethyl)-3,3-dimethyl-2,3,4,9-tetrahydro-1H-pyrido[3,4-b]indol-1-yl)-3,5-difluorophenyl)acrylic acid]: the 50% inhibitory concentration (IC50) in the data set on MCF7 is 25 to 250 nM.

As to `C[C@]12CC[C@@H]3c4ccc(O)cc4C[C@@H](CCCCCCCCC[S+]([O-])CCCC(F)(F)C(F)(F)F)[C@H]3[C@@H]1CC[C@@H]2O` (some centres unmarked) [fulvestrant, reference compound], the ERα % degradation entry at ERα was “A (A = ERα % degradation ≥80%)”. The concentration for half-maximal inhibition (IC50) in the data set with MCF7 was not above 25 nM.

As for `C[C@@H]1Cc2c([nH]c3ccccc23)[C@@H](c2c(F)cc(/C=C/C(=O)O)cc2F)N1[C@@H]1CCOC1` [Example 8B, (E)-3-(3,5-Difluoro-4-((1R,3R)-3-methyl-2-((R)-tetrahydrofuran-3-yl)-2,3,4,9-tetrahydro-1H-pyrido[3,4-b]indol-1-yl)phenyl)acrylic acid], the ERα % degradation result at ERα is on record as “B (B = ERα % degradation <80%)”. In addition, in the data set on MCF7, the 50% inhibitory concentration (IC50) lay in the range of 25 to 250 nM.

Consider `CCC1Cc2c([nH]c3ccccc23)C(c2c(F)cc(/C=C/C(=O)O)cc2F)N1CC12CC(C1)C2` (centres unmarked) [Example 24, (E)-3-(4-(2-(Bicyclo[1.1.1]pentan-1-ylmethyl)-3-ethyl-2,3,4,9-tetrahydro-1H-pyrido[3,4-b]indol-1-yl)-3,5-difluorophenyl)acrylic acid], for which, in the data set on MCF7, the half-inhibitory concentration (IC50) lay in the range of 25 to 250 nM.

Consider `C[C@@H]1Cc2c([nH]c3ccccc23)[C@@H](c2c(F)cc(/C=C/C(=O)O)cc2F)N1C12CC(C(F)(F)F)(C1)C2` (single isomer, unassigned) [Example 4A], for which the ERα % degradation entry at ERα is recorded as “A (A = ERα % degradation ≥80%)”. In the data set on MCF7, this molecule showed an IC50 of 25 to 250 nM.

Turning to `C[C@@H]1Cc2c([nH]c3cc(O)ccc23)[C@@H](c2c(F)cc(/C=C/C(=O)O)cc2F)N1CC(C)(C)F` [Example 15A, (E)-3-(3,5-Difluoro-4-((1R,3R)-2-(2-fluoro-2-methylpropyl)-7-hydroxy-3-methyl-2,3,4,9-tetrahydro-1H-pyrido[3,4-b]indol-1-yl)phenyl)acrylic acid], the IC50 in the data set with MCF7 was not above 25 nM.

As for `C[C@H]1Cc2c([nH]c3ccc(O)cc23)[C@H](c2c(F)cc(/C=C/C(=O)O)cc2F)N1CC(C)(C)F` (single isomer, unassigned) [Example 13A], in the data set with MCF7, the half-inhibitory concentration (IC50) is 25 to 250 nM.

Consider `C[C@@H]1Cc2c([nH]c3ccccc23)[C@@H](c2c(F)cc(/C=C/C(=O)O)cc2F)N1C1CCOCC1` [Example 6A, (E)-3-(3,5-Difluoro-4-((1R,3R)-3-methyl-2-(tetrahydro-2H-pyran-4-yl)-2,3,4,9-tetrahydro-1H-pyrido[3,4-b]indol-1-yl)phenyl)acrylic acid], for which the ERα % degradation entry on ERα is “B (B = ERα % degradation <80%)”.

Turning to `C[C@@H]1Cc2c([nH]c3ccccc23)[C@H](c2c(F)cc(/C=C/C(=O)O)cc2F)N1C12CC(C1)C2` [Example 11C, (E)-3-(4-((1S,3R)-2-(Bicyclo[1.1.1]pentan-1-yl)-3-methyl-2,3,4,9-tetrahydro-1H-pyrido[3,4-b]indol-1-yl)-3,5-difluorophenyl)acrylic acid], the IC50 in the data set on MCF7 is not below 250 nM.

Molecule `C[C@@H]1Cc2c([nH]c3ccccc23)[C@@H](c2c(F)cc(/C=C/C(=O)O)cc2F)N1CC1COC1` [Example 17A] yielded an IC50 in the data set on MCF7 of 25 to 250 nM.

For the molecule `[2H][C@@]1(c2c(F)cc(/C=C/C(=O)O)cc2F)c2[nH]c3ccccc3c2C[C@@H](C)N1C12CC(C1)C2` [Example 11D, (E)-3-(4-((1R,3R)-2-(Bicyclo[1.1.1]pentan-1-yl)-3-methyl-2,3,4,9-tetrahydro-1H-pyrido[3,4-b]indol-1-yl-1-d)-3,5-difluorophenyl)acrylic acid], the IC50 with MCF7 is not above 25 nM.

`CC[C@@H]1Cc2c([nH]c3ccccc23)[C@@H](c2c(F)cc(/C=C/C(=O)O)cc2F)N1[C@@H]1CCOC1` (single isomer, unassigned) [Example 23B] yielded an IC50 in the data set on MCF7 of 25 to 250 nM.

The molecule `CC[C@@H]1Cc2c([nH]c3ccccc23)[C@@H](c2c(F)cc(/C=C/C(=O)O)cc2F)N1[C@H]1CCOC1` (single isomer, unassigned) [Example 23A] had an IC50 with MCF7 not above 25 nM.

Consider `C[C@@H]1Cc2c([nH]c3ccccc23)[C@@H](c2c(F)cc(/C=C/C(=O)O)cc2F)N1CC1(C)COC1` [Example 18A, (E)-3-(3,5-Difluoro-4-((1R,3R)-3-methyl-2-((3-methyloxetan-3-yl)methyl)-2,3,4,9-tetrahydro-1H-pyrido[3,4-b]indol-1-yl)phenyl)acrylic acid], for which, in the data set on MCF7, the IC50 was not above 25 nM.

Turning to `O=C(O)/C=C/c1cc(F)c(C2c3[nH]c4ccccc4c3C[C@@H](C(F)F)N2C2CCOC2)c(F)c1` (stereo partly drawn) [Example 19A, (E)-3-(4-((3S)-3-(Difluoromethyl)-2-(tetrahydrofuran-3-yl)-2,3,4,9-tetrahydro-1H-pyrido[3,4-b]indol-1-yl)-3,5-difluorophenyl)acrylic acid], in the data set with MCF7, the IC50 was not above 25 nM.

For the origin of these results see patent US11065234B2, “Estrogen receptor modulators” (Recurium IP Holdings, LLC, priority 2016, dated 2021).
